Calls of active or inactive are those of the source.
What was measured:
[1] = Luminescence Cell-Based Dose Response to Identify Activators of 5'UTR Stem-Loop Driven Prion Protein mRNA Translation in H4-C Neuroglioblastoma Cells. [Related pubchem assays: 1829 (Project Summary), 1814 (Primary HTS)]; format: functional
[2] = Luminescence Cell-Based Dose Response HTS to Identify Activators of Luciferase Translation or Activity in H4 […] Cells. [Related pubchem assays: 1829 (Project Summary), 1814 (Primary HTS)]; format: functional
[3] = Luminescence Cell-Based Dose Response to Identify Activators of Luciferase Translation or Activity in H4-C Neuroglioblastoma Cells. [Related pubchem assays: 1829 (Project Summary), 1814 (Primary HTS)]; format: functional
[4] = Luminescence Cell-Based Dose Confirmation to Identify Activators of 5'UTR Stem-Loop Driven Alpha-Synuclein mRNA Translation in H4 Neuroglioblastoma Cells. [Related pubchem assays: 1829 (Project Summary), 1814 (Primary HTS)]; format: functional
[5] = tested on: Vero; assay: cells; format: functional, cell-based; conditions: Chlorocebus sabaeus
[6] = CellTiter-Glo luminescence survival assay, SW480 colon tumor line, concentration-response curve, half-maximal inhibitory concentration (AID 1117338); format: functional
[7] = RKO cell viability reduction, dose response, CellTiter-Glo luminescence (AID 1117322); format: functional
[8] = cytotoxicity toward HCT116 cells – cell-based, CellTiter-Glo luminescence, IC50, dose response (AID 1117332); format: functional; conditions: HCT-116
[9] = SNU-C1 cell viability reduction, dose response, CellTiter-Glo luminescence (AID 1117323); format: functional, cell-based
[10] = cytotoxicity toward Colo320 cells – cell-based, CellTiter-Glo luminescence, IC50, dose response (AID 1117334); format: functional; conditions: COLO 320
[11] = cytotoxicity toward HT-29 cells – cell-based, CellTiter-Glo luminescence, IC50, dose response (AID 1117330); format: functional
[12] = Reduced DLD-1 viability, concentration-response, CellTiter-Glo luminescence (AID 1117352); format: functional
[13] = molecular target: Cytochrome P450 2C9 (Homo sapiens, UniProt P11712); conditions: Potency
Sequence of Cytochrome P450 2C9 (P11712 whole entry): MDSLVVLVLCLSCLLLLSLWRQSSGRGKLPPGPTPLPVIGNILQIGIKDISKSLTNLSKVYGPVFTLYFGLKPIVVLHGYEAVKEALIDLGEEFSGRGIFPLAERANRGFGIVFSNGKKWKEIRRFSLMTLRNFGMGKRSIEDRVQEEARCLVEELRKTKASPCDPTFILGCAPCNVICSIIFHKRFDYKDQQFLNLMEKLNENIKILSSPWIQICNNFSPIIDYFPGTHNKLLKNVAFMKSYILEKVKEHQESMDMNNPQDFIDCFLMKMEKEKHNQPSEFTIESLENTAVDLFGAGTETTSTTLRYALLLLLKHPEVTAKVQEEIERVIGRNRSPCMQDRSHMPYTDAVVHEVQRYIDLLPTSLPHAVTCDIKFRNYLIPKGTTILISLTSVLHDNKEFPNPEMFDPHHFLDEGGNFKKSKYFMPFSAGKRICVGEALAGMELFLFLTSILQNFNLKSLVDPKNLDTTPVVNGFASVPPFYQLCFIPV

[14] = Trypanosoma cruzi growth suppression in host cells – NIH3T3 host cells, beta-gal luminescence, confirmation (AID 2044); format: functional, cell-based;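 note: intracellular parasites grown in NIH/3T3 mouse fibroblasts as host cells; luminescent beta-galactosidase reporter signal from transgenic T. cruzi replicating inside host cells; inhibitors lower the luminescence signal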
[15] = NIH3T3 cell viability loss – ATP luminescence, mouse fibroblasts, counter-screen, dose response (AID 2010); format: functional, cell-based;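 note: cells exposed to compound for about 90 hours before reading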
[16] = viability loss in THP-1 monocytes – THP-1 cells, cytotoxicity control for Vif-APOBEC3G degradation inhibitor project, dose response (AID 1117359); format: functional; conditions: THP-1
[17] = cells
[18] = molecular target: Protein Tat (Human immunodeficiency virus type 1 group M subtype B (isolate HXB2)(HIV-1), UniProt P04608); format: functional;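 note: tat binding to TAR RNA read out by fluorescence polarization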
Sequence of Protein Tat (P04608 whole entry): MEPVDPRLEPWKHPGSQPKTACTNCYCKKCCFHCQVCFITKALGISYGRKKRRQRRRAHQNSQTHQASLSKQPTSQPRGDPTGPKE

[19] = tested on: Vero; assay: mammalian cell viability reduction – secondary assay, cytotoxicity control for West Nile virus antiviral project, dose response (AID 1650); format: functional; conditions: Chlorocebus sabaeus
[20] = tested on: Vero; assay: cells; format: functional; conditions: Chlorocebus sabaeus
[21] = molecular target: T1, Tyrosine-protein phosphatase non-receptor type 7 (Homo sapiens, UniProt P35236); assay: HePTP tyrosine phosphatase activity blockers – biochemical, absorbance, leukemia target, primary screen (AID 521); format: functional
T1 sequence (P35236 whole entry): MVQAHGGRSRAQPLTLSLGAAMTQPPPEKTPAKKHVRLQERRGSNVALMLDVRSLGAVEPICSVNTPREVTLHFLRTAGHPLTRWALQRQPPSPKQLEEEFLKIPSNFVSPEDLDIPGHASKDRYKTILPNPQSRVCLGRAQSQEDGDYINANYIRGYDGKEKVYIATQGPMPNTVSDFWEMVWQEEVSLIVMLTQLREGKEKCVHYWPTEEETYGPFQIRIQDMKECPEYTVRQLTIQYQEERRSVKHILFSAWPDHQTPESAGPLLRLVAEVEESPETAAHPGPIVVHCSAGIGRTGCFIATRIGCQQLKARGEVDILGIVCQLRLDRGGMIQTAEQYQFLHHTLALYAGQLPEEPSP

[22] = molecular target: 26S proteasome non-ATPase regulatory subunit 14 (Homo sapiens, UniProt O00487); assay: inhibition of proteasome subunit RPN11 – biochemical, fluorescence polarization, uHTS hits, confirmation (AID 602368); format: functional
Sequence of 26S proteasome non-ATPase regulatory subunit 14 (O00487 whole entry): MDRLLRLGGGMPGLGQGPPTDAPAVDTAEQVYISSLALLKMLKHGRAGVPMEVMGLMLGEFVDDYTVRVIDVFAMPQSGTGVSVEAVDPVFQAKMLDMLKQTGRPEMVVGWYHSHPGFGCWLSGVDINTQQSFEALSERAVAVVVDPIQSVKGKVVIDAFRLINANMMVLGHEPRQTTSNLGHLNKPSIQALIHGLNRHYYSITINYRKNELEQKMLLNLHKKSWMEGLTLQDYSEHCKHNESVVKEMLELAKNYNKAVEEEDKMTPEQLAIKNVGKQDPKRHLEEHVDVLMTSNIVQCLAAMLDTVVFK

[23] = molecular target: 72 kDa type IV collagenase (Homo sapiens, UniProt P08253); assay: Dose Response validation of uHTS RPN11 inhibitor hits using a MMP-2 Fluorescence assay.; format: functional
Sequence of 72 kDa type IV collagenase (P08253 whole entry): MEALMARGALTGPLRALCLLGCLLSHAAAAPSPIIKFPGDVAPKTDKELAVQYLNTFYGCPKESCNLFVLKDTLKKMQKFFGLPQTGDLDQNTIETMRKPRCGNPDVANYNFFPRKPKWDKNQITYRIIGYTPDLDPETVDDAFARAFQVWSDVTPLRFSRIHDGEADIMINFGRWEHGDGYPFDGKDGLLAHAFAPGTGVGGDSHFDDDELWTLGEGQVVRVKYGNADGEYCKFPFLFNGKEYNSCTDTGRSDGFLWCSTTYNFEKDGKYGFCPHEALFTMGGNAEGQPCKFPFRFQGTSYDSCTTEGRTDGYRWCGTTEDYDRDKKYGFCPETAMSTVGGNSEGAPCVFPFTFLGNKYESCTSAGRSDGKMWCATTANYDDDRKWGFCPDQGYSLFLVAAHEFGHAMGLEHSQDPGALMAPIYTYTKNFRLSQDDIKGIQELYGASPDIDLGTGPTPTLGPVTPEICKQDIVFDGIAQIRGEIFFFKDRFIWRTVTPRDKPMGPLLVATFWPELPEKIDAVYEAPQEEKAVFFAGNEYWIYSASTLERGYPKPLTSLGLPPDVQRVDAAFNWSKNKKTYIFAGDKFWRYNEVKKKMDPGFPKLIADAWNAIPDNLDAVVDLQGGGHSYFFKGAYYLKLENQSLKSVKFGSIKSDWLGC

[24] = molecular target: Prothrombin (Bos taurus, UniProt P00735); assay: thrombin protease inhibitors – biochemical, fluorescence polarization, uHTS hits, dose response (AID 602369); format: functional

With `NC(=O)C1=C[C@H](C2CCCCC2)C[C@H](OCc2ccc(CO)cc2)O1` the EC50 [1] was 0.326 µM (active), the EC50 [2] was < 0.1 µM (inconclusive) and the EC50 [3] was > 12 µM (not active). The EC50 [4] was 0.558 µM (active) and the IC50 [5] was > 25 µM (active).
For `CCc1cccc2c3c([nH]c12)C(CC)(CC(=O)O)OCC3` (centres undefined) [ETODOLAC], the IC50 [6] was > 20 µM (inactive), the IC50 [7] was > 20 µM (inactive) and the IC50 [8] was > 20 µM (inactive). The IC50 [9] was > 20 µM (inactive), the IC50 [10] was > 20 µM (inactive) and the IC50 [11] was > 20 µM (inactive). The IC50 [12] was > 20 µM (inactive) and the AC50 [13] was 39.8 µM (inconclusive).
For `Cc1ccc(CNC(=O)CCC2CCCN(Cc3cc4ccccc4o3)C2)o1` (centres undefined), the EC50 [14] was < 0.1 µM (active), the EC50 [15] was > 30 µM (not active) and the CC50 [16] was 33.8 µM (active). The EC50 [17] was 0.222 µM (active).
For `Cc1cc(S(=O)(=O)N(Cc2ccccn2)Cc2ccco2)ccc1-n1cnnn1`, the IC50 [18] was > 100 µM (active).
In the case of `O=C(CCN1C(=O)/C(=C\c2cccc(Br)c2)SC1=S)N1CCOCC1`, the CC50 [19] is reported as 31.3 µM (active) and the CC50 [20] is reported as > 25 µM (active).
With `C#CCn1/c(=N/C(=O)c2cccs2)sc2cccc(OC)c21` the IC50 [21] was > 100 µM (not active), the IC50 [22] was 24.9 µM (active) and the IC50 [23] was > 100 µM (inactive). The IC50 [24] was > 100 µM (inactive).
